Test results: patent US20070128217A1 (priority 2003, published 2007)

Tests used:
[1] = tested on: recombinant human anti-SARS-CoV antibody 03-018; assay type: binding; design: Binding of antibody 03-018 to linear peptides of the N protein of SARS-CoV Urbani / Binding of antibody 03-018 to looped/cyclic peptides of the N protein of SARS-CoV Urbani: unit not given here
[2] = tested on: antibodies in sera from SARS patients (sera 1a, 1b, 2, 6, 37, 62, London, SARS-yellow, SARS-green); assay type: binding, human; design: Binding of serum 6 to linear peptides of protein X1 of SARS-CoV Urbani / Binding of serum 37 to linear peptides of protein X1 of SARS-CoV Urbani / Binding of serum 6 to looped/cyclic peptide (PEPSCAN-ELISA) / Binding of serum 37 to looped/cyclic peptide (PEPSCAN-ELISA) / Binding of serum 37 to looped/cyclic peptides of protein X1 of SARS-CoV Urbani / Binding of serum 6 to linear peptides of protein X2 / Binding of serum 37 to linear peptides of protein X2 / Binding of serum 37 to looped/cyclic peptides of protein X2 of SARS-CoV Urbani / Binding of serum 6 to linear peptides of protein M of SARS-CoV Urbani / Binding of serum 37 to linear peptides of protein M of SARS-CoV Urbani / Binding of serum 6 to looped/cyclic peptides of protein M of SARS-CoV Urbani / Binding of serum 37 to looped/cyclic peptides of protein M of SARS-CoV Urbani / Binding of serum 6 to linear peptides of protein X3 of SARS-CoV Urbani / Binding of serum 37 to linear peptides of protein X3 of SARS-CoV Urbani / Binding of serum 37 to looped/cyclic peptides of protein X3 of SARS-CoV Urbani / Binding of serum 6 to linear peptides of protein X4 of SARS-CoV Urbani / Binding of serum 37 to linear peptides of protein X4 of SARS-CoV Urbani / Binding of serum 37 to looped/cyclic peptides of protein X4 of SARS-CoV Urbani / Binding of serum 6 to linear peptides of protein X5 of SARS-CoV Urbani / Binding of serum 37 to linear peptides of protein X5 of SARS-CoV Urbani / Binding of serum 37 to looped/cyclic peptides of protein X5 of SARS-CoV Urbani / Binding of serum 6 to linear peptides of protein N of SARS-CoV Urbani / Binding of serum 37 to linear peptides of protein N of SARS-CoV Urbani / Binding of serum 6 to linear peptide (PEPSCAN-ELISA) / Binding of serum 1a to looped/cyclic peptides of protein N of SARS-CoV Urbani / Binding of serum 1b to looped/cyclic peptides of protein N of SARS-CoV Urbani / Binding of serum 2 to looped/cyclic peptides of protein N of SARS-CoV Urbani / Binding of serum 6 to looped/cyclic peptides of protein N of SARS-CoV Urbani / Binding of serum 37 to looped/cyclic peptides of protein N of SARS-CoV Urbani / Binding of serum 62 to looped/cyclic peptides of protein N of SARS-CoV Urbani / Binding of serum London to looped/cyclic peptides of protein N of SARS-CoV Urbani / Binding of serum SARS-green to looped/cyclic peptides of protein N of SARS-CoV Urbani: unit not given here
[3] = tested on: control sera (pooled serum of ten healthy LUMC hospital workers; commercial negative donor pooled serum from the Dutch bloodbank); assay type: binding, human; design: Binding of Control serum LUMC to linear peptides / Binding of Control serum Blood-bank to linear peptides / Binding of Control serum LUMC to looped peptides / Binding of Control Serum Blood-Bank to Looped peptides / Binding of Control serum LUMC to linear peptides of the protein M of SARS-CoV Urbani / Binding of Control serum Blood-bank to linear peptides of the protein M of SARS-CoV Urbani / Binding of Control serum LUMC to looped peptides of the protein M of SARS-CoV Urbani / Binding of Control Serum Blood-Bank to Looped peptides of the protein M of SARS-CoV Urbani: unit not given here
[4] = tested on: rabbit serum obtained by immunizing a rabbit with the SARS-CoV strain Frankfurt 1; assay type: binding; design: Binding of a rabbit serum to linear peptides / Binding of a rabbit serum to looped peptides / Rabbit serum linear peptides / Rabbit serum looped peptides / Binding of a rabbit serum to linear peptides of protein N of SARS-CoV Urbani (Rabbit serum linear peptides) / Binding of a rabbit serum to looped/cyclic peptides of protein N of SARS-CoV Urbani (Rabbit serum looped peptides): unit not given here

Sequence | Binding of antibody 03-018 to linear peptides of the N protein of SARS-CoV Urbani [1] | Binding of antibody 03-018 to looped/cyclic peptides of the N protein of SARS-CoV Urbani [1] | Binding of serum 1a to linear peptides of protein N of SARS-CoV Urbani [2] | Binding of serum 1a to looped/cyclic peptides of protein N of SARS-CoV Urbani [2] | Binding of serum 1b to linear peptides of protein N of SARS-CoV Urbani [2] | Binding of serum 1b to looped/cyclic peptides of protein N of SARS-CoV Urbani [2] | Binding of serum 2 to linear peptides of protein N of SARS-CoV Urbani [2] | Binding of serum 2 to looped/cyclic peptides of protein N of SARS-CoV Urbani [2] | Binding of serum 6 to linear peptides of protein N of SARS-CoV Urbani [2] | Binding of serum 6 to looped/cyclic peptides of protein N of SARS-CoV Urbani [2] | Binding of serum 37 to linear peptides of protein N of SARS-CoV Urbani [2] | Binding of serum 37 to looped/cyclic peptides of protein N of SARS-CoV Urbani [2] | Binding of serum 62 to linear peptides of protein N of SARS-CoV Urbani [2] | Binding of serum 62 to looped/cyclic peptides of protein N of SARS-CoV Urbani [2] | Binding of serum London to linear peptides of protein N of SARS-CoV Urbani [2] | Binding of serum London to looped/cyclic peptides of protein N of SARS-CoV Urbani [2] | Binding of serum SARS-green to linear peptides of protein N of SARS-CoV Urbani [2] | Binding of serum SARS-green to looped/cyclic peptides of protein N of SARS-CoV Urbani [2] | Binding of serum SARS-yellow to linear peptides of protein N of SARS-CoV Urbani [2] | Binding of serum SARS-yellow to looped/cyclic peptides of protein N of SARS-CoV Urbani [2] | also measured
ANKEGIVWVATEGAL | 0.1 | 0.2 | 0.2 | 0.4 | 0.1 | 0.3 | 0.2 | 0.3 | 0.2 | 0.2 | 0.8 | 0.6 | 0.7 | 0.5 | 0.4 | 0.3 | 0.4 | 0.4 | 0.7 | 0.6 | Binding of Control Serum Blood-Bank to Looped peptides [3]: 0.5; Binding of Control serum Blood-bank to linear peptides [3]: 0.6; Binding of Control serum LUMC to linear peptides [3]: 0.6; Binding of Control serum LUMC to looped peptides [3]: 0.6; Binding of a rabbit serum to linear peptides of protein N of SARS-CoV Urbani (Rabbit serum linear peptides) [4]: 0.1; Binding of a rabbit serum to looped/cyclic peptides of protein N of SARS-CoV Urbani (Rabbit serum looped peptides) [4]: 0.3
ASAFFGMSRIGMEVT | 0.1 | 0.2 | 0.2 | 0.3 | 0.3 | 0.2 | 0.2 | 0.3 | 0.2 | 0.1 | 0.7 | 0.5 | 0.7 | 0.4 | 0.8 | 0.3 | 0.3 | 0.3 | 0.7 | 0.6 | Control Serum Blood-Bank Looped peptides [3]: 0.5; Control serum Blood-bank linear peptides [3]: 0.7; Control serum LUMC linear peptides [3]: 0.7; Control serum LUMC looped peptides [3]: 0.4; Binding of a rabbit serum to linear peptides of protein N of SARS-CoV Urbani (Rabbit serum linear peptides) [4]: 0.1; Binding of a rabbit serum to looped/cyclic peptides of protein N of SARS-CoV Urbani (Rabbit serum looped peptides) [4]: 0.5
ASLPYGANKEGIVWV | 0.1 | 0.3 | 0.2 | 0.4 | 0.1 | 0.3 | 0.2 | 0.7 | 0.1 | 0.3 | 0.6 | 1.0 | 0.5 | 1.0 | 0.4 | 0.6 | 0.1 | 0.8 | 0.5 | 0.3 | Binding of Control Serum Blood-Bank to Looped peptides [3]: 0.9; Binding of Control serum Blood-bank to linear peptides [3]: 0.7; Binding of Control serum LUMC to linear peptides [3]: 0.6; Binding of Control serum LUMC to looped peptides [3]: 0.8; Binding of a rabbit serum to linear peptides of protein N of SARS-CoV Urbani (Rabbit serum linear peptides) [4]: 0.2; Binding of a rabbit serum to looped/cyclic peptides of protein N of SARS-CoV Urbani (Rabbit serum looped peptides) [4]: 0.2
ASWFTALTQHGKEEL | 0.1 | 0.2 | 0.2 | 0.2 | 0.1 | 0.1 | 0.1 | 0.2 | 0.1 | 0.1 | 0.9 | 0.4 | 0.6 | 0.3 | 0.5 | 0.3 | 0.4 | 0.2 | 0.4 | 0.1 | Binding of Control Serum Blood-Bank to Looped peptides [3]: 0.5; Binding of Control serum Blood-bank to linear peptides [3]: 0.7; Binding of Control serum LUMC to linear peptides [3]: 0.5; Binding of Control serum LUMC to looped peptides [3]: 0.4; Binding of a rabbit serum to linear peptides of protein N of SARS-CoV Urbani (Rabbit serum linear peptides) [4]: 0.1; Binding of a rabbit serum to looped/cyclic peptides of protein N of SARS-CoV Urbani (Rabbit serum looped peptides) [4]: 0.1
